According to patent US8168592B2 (Amgen Inc., priority 2005, dated 2012):
“Also recorded” adds a separate entry of the source. Blank lines part the entries; values can stand above or below the molecule they belong to. PEG = not defined here

Legend:
CGRP1 receptor [1] = target: T1, CGRP1 receptor (Rattus norvegicus, UniProt Q63118+Q9JJ74); assay: laser Doppler blood flowmetry assay (hαCGRP-induced skin blood flow); type: in vivo; conditions: i.v., pre-treatment 5 minutes
T1 construct: from tissue; host or cells: living anaesthetised rat, abdominal skin
T1 sequence (Q63118 24-464): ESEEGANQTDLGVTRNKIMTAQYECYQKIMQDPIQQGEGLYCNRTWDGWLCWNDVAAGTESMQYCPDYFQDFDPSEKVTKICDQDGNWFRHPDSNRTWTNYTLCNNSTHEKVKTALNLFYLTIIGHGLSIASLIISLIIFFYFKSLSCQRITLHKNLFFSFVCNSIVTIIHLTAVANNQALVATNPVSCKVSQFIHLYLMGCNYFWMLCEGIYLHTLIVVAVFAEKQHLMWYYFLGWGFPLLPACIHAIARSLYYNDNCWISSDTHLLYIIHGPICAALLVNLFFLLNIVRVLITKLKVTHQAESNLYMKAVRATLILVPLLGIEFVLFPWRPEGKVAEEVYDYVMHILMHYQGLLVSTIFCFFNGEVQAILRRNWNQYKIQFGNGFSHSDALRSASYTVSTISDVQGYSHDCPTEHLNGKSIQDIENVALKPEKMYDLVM
T1 sequence (Q9JJ74 27-148): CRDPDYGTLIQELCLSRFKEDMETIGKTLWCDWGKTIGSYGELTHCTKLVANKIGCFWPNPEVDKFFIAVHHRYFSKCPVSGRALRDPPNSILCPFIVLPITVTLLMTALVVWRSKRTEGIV
Protocol: Methods. An automated laser Doppler blood flowmetry device is used (MoorLDI®; Moor Instrument, Devon, UK). The device was turned on prior to the start of experiments and allowed to warm up for 20 minutes. Blood flow data (in FLUX) were read from software records (see below).
For each rat, the experimental procedure was performed within a single day and was each rat was sacrificed on the same day immediately after the experiment was over. On an experiment day, each rat was weighed and administered 1 ml/kg (intramuscular injection in right leg) of an anesthetic cocktail consisting of Ketamine, Xylazine and PBS (5:3:2). […] A small dot was placed near the center of the abdomen using a marker. The animal was then ready for the experiment.
Approximately 20 min after the injection of the anesthetic cocktail, baseline blood flow readings were collected for each animal. Each rat was placed under the laser Doppler scanning device, matching the laser with the marker dot on the abdomen. Using the device's software package, the device was activated and the surface of the abdomen was scanned for 1 min with the laser. The scan area was 4 cm×4 cm. […]
In some cases, plasma IC50 values were calculated by performing least squares linear regression on log plasma concentration values (nM) vs. % change in blood flow values calculated for individual rats.

[2] = solubility in aqueous conjugation buffers; type: physicochemical
Protocol: Co-solvent mediated conjugation of vehicle to CGRP peptide antagonists. […] In an attempt to better solubilize these less soluble peptides during the conjugation reaction, and thereby improve conjugate yields, a variety of alcohol co-solvents were tested in the conjugation reaction.

[3] = in vitro stability in 10% human plasma, LC-MS/MS; type: in vitro ADME; conditions: room temperature, 100 ng/ml
Protocol: Consequently, the stability of select, non-PEGylated analogs was evaluated in vitro in the presence of 10% rat or human plasma. Briefly, samples of each peptide were diluted to 100 ng/ml into PBS containing 10% of rat or human plasma. Each sample was then incubated at room temperature and analyzed by LC-MS/MS to quantitate the intact peptide remaining at select time points over 6 hours.

[4] = in vitro stability in 5% mouse plasma, sandwich ELISA
Protocol: (§1) Peptide samples at 2 mg/ml in PBS were spiked with 5% mouse plasma and analyzed by sandwich ELISA (as described in Example 3 herein above) over 48 hours at room temperature. Peptide integrity was determined by sandwich ELISA requiring intact peptide termini.

[5] = monkey pharmacokinetic studies; conditions: cynomolgus monkey, in vivo, iv, 6 mg/kg
Protocol: Monkey pharmacokinetic studies. […] A complete blood chemistry panel was performed on each monkey prior to each study day to obtain baseline values and ensure hematological recovery. A catheter was placed in the cephalic vein of three male Cynomolgus monkeys (Macaca fascicularis) for blood sampling during the study. For the intravenous (iv) leg of the study, a catheter was also placed in a saphenous vein for infusion of test compound. On each study day, the monkeys were placed in restraining chairs for the first 4 h of the study to facilitate drug administration and blood sampling. For administration of antagonist, each monkey received solubilized peptide (dose and SEQ ID listed in Table 11 below) either as a 30-min intravenous infusion (4 mL/kg/h) or as a single subcutaneous bolus (approx. 1.0 mL/animal). Blood samples were collected from each study animal at various times during and after drug administration, plasma samples (100 μL) were isolated by centrifugation and stored at −70° C. until analysis. For monkeys receiving intravenous infusion, such a sample was also taken at 20 min during the infusion.

[6] = rat plasma (10% rat plasma in the legend of FIG. 2); conditions: room temperature, up to 1 hour
[7] = monkey plasma during 30 minutes of intravenous infusion; conditions: Cynomolgus monkeys (Macaca fascicularis), up to 20 min during the infusion
100% human plasma = conditions: room temperature, up to 4 hour
[8] = 100% Cynomolgus monkey plasma; conditions: room temperature, up to 4 hour
[9] = mouse
Protocol: as §1

CGRP1 receptor [10] = target: T2, CGRP1 receptor (Homo sapiens, UniProt O60894+Q16602); assay: in vitro CGRP1 receptor mediated cAMP assay in SK-N-MC cells; type: cell-based; conditions: cAMP assay
T2 construct: SK-N-MC cells express CRLR and RAMP1, which form CGRP1 receptor; endogenous in cells; host or cells: SK-N-MC human neuroblastoma cells
T2 sequence (Q16602 23-461): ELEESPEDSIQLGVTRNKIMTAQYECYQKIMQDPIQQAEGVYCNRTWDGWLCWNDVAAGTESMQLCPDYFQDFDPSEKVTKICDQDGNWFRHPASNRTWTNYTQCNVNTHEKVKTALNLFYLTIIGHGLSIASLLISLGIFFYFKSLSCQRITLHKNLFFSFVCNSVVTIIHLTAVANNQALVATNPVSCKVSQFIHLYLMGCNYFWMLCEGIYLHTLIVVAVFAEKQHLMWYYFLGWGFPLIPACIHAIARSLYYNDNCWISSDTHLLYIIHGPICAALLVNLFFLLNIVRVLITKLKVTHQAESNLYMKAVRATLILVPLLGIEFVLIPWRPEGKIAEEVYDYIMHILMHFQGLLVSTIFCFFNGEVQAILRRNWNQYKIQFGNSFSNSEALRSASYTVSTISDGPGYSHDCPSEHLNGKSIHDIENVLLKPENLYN
T2 sequence (O60894 27-148): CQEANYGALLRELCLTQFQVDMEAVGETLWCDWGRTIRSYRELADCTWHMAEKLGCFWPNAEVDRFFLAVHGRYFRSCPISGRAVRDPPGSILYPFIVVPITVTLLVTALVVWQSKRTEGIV
Summary of the method: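 Human SK-N-MC neuroblastoma cells, which endogenously express CRLR/RAMP1, were plated two days before assay and preincubated in plasma-free medium for 15 minutes at room temperature. Cells were then lysed for 30 minutes at 37° C, and cAMP in the lysates was quantified by competitive cAMP-AP chemiluminescent ELISA.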

Molecule: CC(=O)N[C@@H](Cc1c[nH]c2ccccc12)C(=O)N[C@H](C(=O)N[C@H](C(=O)N[C@@H](Cc1c[nH]cn1)C(=O)N[C@@H](CCCNC(N)=O)C(=O)N[C@@H](CC(C)C)C(=O)N[C@@H](C)C(=O)NCC(=O)N[C@@H](CC(C)C)C(=O)N[C@@H](CC(C)C)C(=O)N[C@@H](CO)C(=O)N[C@@H](CCCNC(N)=O)C(=O)N[C@@H](CO)C(=O)NCC(=O)NCC(=O)N[C@H](C(=O)N[C@H](C(=O)N[C@@H](CCCCNC(=N)N)C(=O)N[C@@H](CCCCN)C(=O)N[C@@H](CC(N)=O)C(=O)N[C@@H](Cc1ccccc1)C(=O)N[C@H](C(=O)N1CCC[C@H]1C(=O)N[C@H](C(=O)N[C@@H](CC(=O)O)C(=O)N[C@H](C(=O)NCC(=O)N1CCC[C@H]1C(=O)N[C@@H](Cc1ccccc1)C(=O)N[C@@H](C)C(=O)N[C@@H](Cc1ccccc1)C(N)=O)C(C)C)[C@@H](C)O)C(C)C)C(C)C)C(C)C)[C@@H](C)O)C(C)C [Compound 739]
- Efficacy observed (%) (at highest dose tested) (CGRP1 receptor [1]; 6 mg/kg): 100%

Molecule: CC(=O)N[C@@H](Cc1c[nH]c2ccccc12)C(=O)N[C@H](C(=O)N[C@H](C(=O)N[C@@H](Cc1c[nH]cn1)C(=O)N[C@@H](CCCNC(=N)N)C(=O)N[C@@H](CC(C)C)C(=O)N[C@@H](C)C(=O)NCC(=O)N[C@@H](CC(C)C)C(=O)N[C@@H](CC(C)C)C(=O)N[C@@H](CO)C(=O)N[C@@H](CCCNC(=N)N)C(=O)N[C@@H](CO)C(=O)NCC(=O)NCC(=O)N[C@H](C(=O)N[C@H](C(=O)N[C@@H](CCCNC(=N)N)C(=O)N[C@@H](CCCCN)C(=O)N[C@@H](CC(N)=O)C(=O)N[C@@H](Cc1ccccc1)C(=O)N[C@H](C(=O)N1CCC[C@H]1C(=O)N[C@H](C(=O)N[C@@H](CC(=O)O)C(=O)N[C@H](C(=O)NCC(=O)N1CCC[C@H]1C(=O)N[C@@H](Cc1ccccc1)C(=O)N[C@@H](C)C(=O)N[C@@H](Cc1ccccc1)C(N)=O)C(C)C)[C@@H](C)O)C(C)C)C(C)C)C(C)C)[C@@H](C)O)C(C)C [Compound 808]
- Efficacy observed (%) (at highest dose tested) (CGRP1 receptor [1]; 0.6 mg/kg): 100%

Molecule: CC(=O)N[C@@H](Cc1c[nH]c2ccccc12)C(=O)N[C@H](C(=O)N[C@H](C(=O)N[C@@H](Cc1cnc[nH]1)C(=O)N[C@@H](CCCNC(N)=O)C(=O)N[C@@H](CC(C)C)C(=O)N[C@@H](C)C(=O)NCC(=O)N[C@@H](CC(C)C)C(=O)N[C@@H](CC(C)C)C(=O)N[C@@H](CO)C(=O)N[C@@H](CCCNC(N)=O)C(=O)N[C@@H](CO)C(=O)NCC(=O)NCC(=O)N[C@H](C(=O)N[C@H](C(=O)N[C@@H](CCCCNC(=N)N)C(=O)N[C@@H](CCCCN)C(=O)N[C@@H](CC(N)=O)C(=O)N[C@@H](Cc1ccccc1)C(=O)N[C@H](C(=O)N1CCC[C@H]1C(=O)N[C@H](C(=O)N[C@@H](CC(=O)O)C(=O)N[C@H](C(=O)NCC(=O)N1CCC[C@H]1C(=O)N[C@@H](Cc1ccccc1)C(=O)N[C@@H](C)C(=O)N[C@@H](Cc1ccccc1)C(N)=O)C(C)C)[C@@H](C)O)C(C)C)C(C)C)C(C)C)[C@@H](C)O)C(C)C [SEQ ID NO:739]
- solubility in words [2]: relatively insoluble

Molecule: CC(=O)N[C@@H](Cc1c[nH]c2ccccc12)C(=O)N[C@H](C(=O)N[C@H](C(=O)N[C@@H](Cc1c[nH]cn1)C(=O)N[C@@H](CCCNC(N)=O)C(=O)N[C@@H](CC(C)C)C(=O)N[C@@H](C)C(=O)NCC(=O)N[C@@H](CC(C)C)C(=O)N[C@@H](CC(C)C)C(=O)N[C@@H](CO)C(=O)N[C@@H](CCCNC(N)=O)C(=O)N[C@@H](CO)C(=O)NCC(=O)NCC(=O)N[C@H](C(=O)N[C@H](C(=O)N[C@@H](CCCCNC(=N)N)C(=O)N[C@@H](CCCCN)C(=O)N[C@@H](CC(N)=O)C(=O)N[C@@H](Cc1ccccc1)C(=O)N[C@H](C(=O)N1CCC[C@H]1C(=O)N[C@H](C(=O)N[C@@H](CC(=O)O)C(=O)N[C@H](C(=O)NCC(=O)N1[C@H](C(=O)N[C@@H](Cc2ccccc2)C(=O)N[C@@H](C)C(=O)N[C@@H](Cc2ccccc2)C(N)=O)C[C@@H]2CCCC[C@@H]21)C(C)C)[C@@H](C)O)C(C)C)C(C)C)C(C)C)[C@@H](C)O)C(C)C [SEQ ID NO: 658]
- AUC0-inf [5]: 17000 ng·h/mL
- AUC0-t [5]: 16900 ng·h/mL
- MRT [5]: 25.2 min
- Vd [5]: 0.174 L/kg
- clearance [5]: 6.65 mL/min/kg
- half-life [5]: 48 min

Molecule: Ac-WVTHRLAGLLSRSGGVVRKNFVPTDVGPFAF-NH2
- cleaved bond [6]: L16-S17, major; also recorded: S17-R18, major; also recorded: R18-S19, major

The next lines start with results.

- % Remaining ([3]; 0 h): 100.0%
- remaining at 0.17 h, 100 ng/ml ([3]; 0.17 h): 60.3%
- remaining at 0.5 h, 100 ng/ml ([3]; 0.5 h): 13.8%
- remaining at 1 h, 100 ng/ml ([3]; 1 h): 4.9%
- remaining at 2 h, 100 ng/ml ([3]; 2 h): 0%
- remaining at 3 h, 100 ng/ml ([3]; 3 h): 0%
- remaining at 4 h, 100 ng/ml ([3]; 4 h): 0%
- remaining at 5 h, 100 ng/ml ([3]; 5 h): 0%
- remaining at 6 h, 100 ng/ml ([3]; 6 h): 0%
- recovery at 0 h, 2 mg/ml [4]: 112 ± 1.8%
- recovery at 4 h, 2 mg/ml [4]: 46.1 ± 60.1%
- recovery at 24 h, 2 mg/ml [4]: 2.51 ± 0.573%
- recovery at 48 h, 2 mg/ml [4]: 1.81 ± 0.754%
Molecule: CC(=O)N[C@@H](Cc1c[nH]c2ccccc12)C(=O)N[C@H](C(=O)N[C@H](C(=O)N[C@@H](Cc1cnc[nH]1)C(=O)N[C@@H](CCCN=C(N)N)C(=O)N[C@@H](CC(C)C)C(=O)N[C@@H](C)C(=O)NCC(=O)N[C@@H](CC(C)C)C(=O)N[C@@H](CC(C)C)C(=O)N[C@@H](CO)C(=O)N[C@@H](CCCN=C(N)N)C(=O)N[C@@H](CO)C(=O)NCC(=O)NCC(=O)N[C@H](C(=O)N[C@H](C(=O)N[C@@H](CCCN=C(N)N)C(=O)N[C@@H](CCCCN)C(=O)N[C@@H](CC(N)=O)C(=O)N[C@@H](Cc1ccccc1)C(=O)N[C@H](C(=O)N1CCC[C@H]1C(=O)N[C@H](C(=O)N[C@@H](CC(=O)O)C(=O)N[C@H](C(=O)NCC(=O)N1CCC[C@H]1C(=O)N[C@@H](Cc1ccccc1)C(=O)N[C@@H](C)C(=O)N[C@@H](Cc1ccccc1)C(N)=O)C(C)C)[C@@H](C)O)C(C)C)C(C)C)C(C)C)[C@@H](C)O)C(C)C [SEQ ID NO: 7]

- solubility in words [2]: relatively soluble
Molecule: CC(=O)N[C@@H](Cc1c[nH]c2ccccc12)C(=O)N[C@H](C(=O)N[C@H](C(=O)N[C@@H](Cc1cnc[nH]1)C(=O)N[C@@H](CCCN=C(N)N)C(=O)N[C@@H](CC(C)C)C(=O)N[C@@H](C)C(=O)NCC(=O)N[C@@H](CC(C)C)C(=O)N[C@@H](CC(C)C)C(=O)N[C@@H](CO)C(=O)N[C@@H](CCCN=C(N)N)C(=O)N[C@@H](CO)C(=O)NCC(=O)NCC(=O)N[C@H](C(=O)N[C@H](C(=O)N[C@@H](CCCN=C(N)N)C(=O)N[C@@H](CCCCN)C(=O)N[C@@H](CC(N)=O)C(=O)N[C@@H](Cc1ccccc1)C(=O)N[C@H](C(=O)N1CCC[C@H]1C(=O)N[C@H](C(=O)N[C@@H](CC(=O)O)C(=O)N[C@H](C(=O)NCC(=O)N1CCC[C@H]1C(=O)N[C@@H](Cc1ccccc1)C(=O)N[C@@H](C)C(=O)N[C@@H](Cc1ccccc1)C(N)=O)C(C)C)[C@@H](C)O)C(C)C)C(C)C)C(C)C)[C@@H](C)O)C(C)C [SEQ. ID NO: 7]

- fragment found (100% human plasma): W7-hR24, major
- fragment found [8]: W7-K25, major
Molecule: Ac-WVTH[Cit]LAGLLS[Cit]SGGVV[hArg]KNFVPTDVG[Oic]FAF-NH2
- fragment found [7]: W7-T9, 20 min during the infusion; also recorded: T30-A36, 20 min during the infusion; also recorded: W7-N26, 20 min during the infusion; also recorded: T30-F37, 20 min during the infusion; also recorded: W7-hR24, 20 min during the infusion

- improved potency relative to native CGRP(8-37) (SEQ ID NO:1) (CGRP1 receptor [10]): about 12 fold
- loss in antagonist activity on PEGylation relative to the unconjugated parent peptide (CGRP1 receptor [10]): three
Molecule: SEQ ID NO:15 (Ac-WVTHRLAGLLSRSGGVVRK(PEG)NFVPTDVGPFAF-NH2; reading uncertain)
- half-life longer than the non-PEGylated parent peptide [9]: more than 9 fold
